The term IC50 denotes the concentration at which inhibition is half-maximal.

We go through five compounds from US20210309669A1, “Heterocyclic Spiro Compounds As MAGL Inhibitors” (Pfizer Inc., priority 2018, published 2021).

Where two headings read alike, the source gives them in different places.

The nature of series [1]: Dynamic vapor sorption (hygroscopicity). It counts as physicochemical. The following applies: 25° C. The procedure:
(§1) An automated vapor sorption analyzer (VTI SGA-CX; VTI scientific) was used to measure the hygroscopicity of the anhydrate of Form I of the invention. The microbalance was calibrated using a 100 mg standard weight. The relative humidity sensor was calibrated at 5.0, 11.3, 32.8, 52.8, 75.3, and 84.3% RH (25° C.) using saturated salt solutions, as well as 80% RH (25° C.) using polyvinylpyrrolidone. Approximately 8-10 mg of the powder sample was placed in the platinum sample pan and dried at 3% relative humidity (RH) at 25° C. with a heating rate of 1° C. per minute. The attainment of equilibrium was assumed when the weight change of the sample was <0.001 wt % in 5 min or by a maximum equilibration time of 120 minutes. […] Again, the attainment of equilibrium was assumed when the weight change of the sample was <0.001 wt % in 5 min or by a maximum equilibration time of 120 minutes. The weight gain at the end of the sorption cycle (90% RH) was calculated on the basis of the dry weight.
as §1, with “Moisture/Water sorption and desorption studies were conducted on automated” for “An automated”, “analyzer (TA instruments Q5000 SA).” for “analyzer (VTI SGA-CX; VTI scientific) was used to measure the hygroscopicity of the anhydrate of Form I of the invention.”, “salt solutions.” for “salt solutions, as well as 80% RH (25° C.) using polyvinylpyrrolidone.”, “Approximately 10-20” for “Approximately 8-10”, “at ≤3%” for “at 3%”, “C.” for “C. with a heating rate of 1° C. per minute.”

The nature of series [2]: In vitro intrinsic clearance in human liver microsomes (HLM). It counts as in vitro ADME. The following applies: pH 7.4, 1 μM substrate, NADPH, 37° C., read-out: HLM CLint, app. Here is the method:
Test Compounds (Example 1-3 and Comparative-Compounds 1-4) were prepared as solutions in DMSO. The final concentration of DMSO in the incubation was <0.1% (v/v). […] (all final concentrations) in a 384-well plate. The reaction mixture was pre-warmed at 37° C. for 10 min prior to initiation of the incubation. The incubation was quenched with acetonitrile containing internal standards at the following time points: 1, 4, 7, 12, 20, 25, 45, and 60 min (individual incubation plates per time point) with a subsequent addition of water. The samples were vortexed followed by centrifugation and the supernatant was analyzed by LC/MS-MS using multiple reaction monitoring. For control experiments, NADPH was omitted from the incubations.
The microsomal t½ (min) was obtained from a log-linear plot of the substrate depletion versus incubation time and was scaled to hepatic intrinsic clearance (CLint,app (μL/min/mg protein) using the following equation: […]
(In general: Liver microsomes are a subcellular fraction often used to study metabolism.)

Series [3] in a line: In vitro intrinsic clearance in human hepatocytes. It counts as in vitro ADME. The conditions noted are these: 1 μM substrate, human hepatocytes 0.5 million viable cells per mL, 37° C. The procedure: Test Compounds (Example 1-3 and Comparative-Compounds 1-4) were prepared as solutions in DMSO at 3 mM which were then diluted in media containing WEM. The final concentration of DMSO in the incubation was 0.03% (v/v). The in vitro half-life (t½) of each compound was determined in incubations containing substrate (1 μM), human hepatocytes (0.5 million viable cells per mL final concentration) in media containing WEM, 50 mM HEPES buffer (pH 7.4), and 26 mM sodium bicarbonate at 37° C. (all final concentrations) in a 96-well plate. The reaction mixture was pre-warmed at 37° C. for 30 min prior to the initiation of the incubation. The incubation was quenched with acetonitrile containing internal standards at the following time points: 0, 5, 15, 30, 60, 120, and 240 min (individual incubation plates per time point). The samples were vortexed followed by centrifugation. An aliquot of supernatant was transferred to a clean 96-well plate and analyzed by LC/MS-MS using multiple reaction monitoring. For control experiments, hepatocytes were omitted from the incubations.
The hepatocyte t½ (min) was obtained from a log-linear plot of the substrate depletion versus incubation time and was scaled to hepatic intrinsic clearance (CLint,app (μL/min/million cells) using the following equation: […]

The target of series [4] is T1, human recombinant Monoacylglycerol Lipase (Homo sapiens, UniProt Q99685).
T1 sequence (Q99685 1-303): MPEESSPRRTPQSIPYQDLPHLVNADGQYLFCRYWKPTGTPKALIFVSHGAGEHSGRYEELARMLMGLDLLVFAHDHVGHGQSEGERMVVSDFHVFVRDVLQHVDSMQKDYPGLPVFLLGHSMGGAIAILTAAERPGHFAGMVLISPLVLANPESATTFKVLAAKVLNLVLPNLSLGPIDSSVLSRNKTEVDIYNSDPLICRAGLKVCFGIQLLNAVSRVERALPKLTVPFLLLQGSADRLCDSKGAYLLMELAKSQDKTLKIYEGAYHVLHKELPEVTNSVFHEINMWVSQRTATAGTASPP
The experiment in a line: MAGL inactivation (enzyme progress curves, kinact/KI). In kind it is biochemical. The conditions noted are these: geometric mean. The procedure: (§2) Assessment of MAGL inhibition utilizes human recombinant Monoacylglycerol Lipase and the fluorogenic substrate 7-hydroxycoumarinyl arachidonate (7-HCA, Biomol ST-502). 400 nL of a test compound at decreasing concentration (ranging from 150 μM down to 1.5 nM) was spotted into a 384-well back plate (PerkinElmer, 6007279) using a Labcyte Echo, followed by addition of 10 μL of MAGL enzyme in assay buffer (50 mM HEPES, pH 7.4, 100 mM NaCl, 5 mM MgCl2, 0.1% Triton X-100 and 25% glycerin). An equal volume of 7-HCA in assay buffer with 10% DMSO was added either immediately (T=0 min) or after a 30 minute incubation (T=30 min) to initiate the reaction. The final concentration of MAGL enzyme was […] and 7-HCA substrate was 5 μM. After these dilutions, the final concentration of the test compound ranged from 3 μM to 0.03 nM. The reaction was allowed to progress for 60 minutes, after which the plate was read at an Ex/Em of 340/465. Percent inhibitions were calculated based on control wells containing no compound (0% inhibition) and a control compound (e.g., a MAGL inhibitor whose activity is known or was previously reported in the literature, such as one with about 100% inhibition). IC50 values were generated based on a four parameter fit model using ABASE software from IDBS. See e.g., Wang, Y. et al., “A Fluorescence-Based Assay for Monoacylglycerol Lipase Compatible with Inhibitor Screening,” Assay and Drug Development Technologies, 2008, Vol. 6 (3) pp 387-393 (reporting an assay for measuring MAGL activity).
To measure MAGL inactivation, the same protocol for the (T=0 min) MAGL inhibition IC50 assay was performed with data collected every minute to acquire enzyme progress curves at decreasing concentrations of compound.

The target in series [5] is T1, human recombinant Monoacylglycerol Lipase. The experiment in a line: MAGL inhibition enzymatic assay (7-HCA fluorogenic substrate). It counts as biochemical. The conditions noted are these: geometric mean. Here is the method: as §2
The target in a further series is T2, human recombinant FAAH (Homo sapiens, UniProt O00519).
T2 construct: purchased Cayman 10010183
T2 sequence (O00519 1-579): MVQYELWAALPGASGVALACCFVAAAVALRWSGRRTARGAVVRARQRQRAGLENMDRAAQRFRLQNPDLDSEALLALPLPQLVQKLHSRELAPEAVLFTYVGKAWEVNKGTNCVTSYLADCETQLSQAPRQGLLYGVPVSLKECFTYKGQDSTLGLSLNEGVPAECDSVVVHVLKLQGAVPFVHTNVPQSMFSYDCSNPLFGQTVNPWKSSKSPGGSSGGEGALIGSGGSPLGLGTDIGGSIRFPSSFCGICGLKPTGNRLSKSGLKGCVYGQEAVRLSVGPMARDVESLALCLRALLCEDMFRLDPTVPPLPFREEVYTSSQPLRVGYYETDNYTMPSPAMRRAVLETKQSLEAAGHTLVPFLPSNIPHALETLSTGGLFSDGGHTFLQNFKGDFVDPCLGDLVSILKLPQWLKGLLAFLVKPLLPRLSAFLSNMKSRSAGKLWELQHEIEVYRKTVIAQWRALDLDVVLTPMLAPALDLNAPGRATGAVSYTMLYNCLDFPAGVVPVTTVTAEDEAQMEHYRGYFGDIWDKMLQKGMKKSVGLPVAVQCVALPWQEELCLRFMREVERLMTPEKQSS
Briefly: FAAH inhibition enzymatic assay (Arachidonoyl-AMC substrate). In kind it is biochemical. The conditions noted are these: 30 minute incubation; geometric mean; read-out: FAAH (T = 30 min) IC50. Here is the method:
Assessment of FAAH inhibition utilizes human recombinant FAAH and the fluorescent substrate, Arachidonoyl-AMC. 400 nL of a test compound at decreasing concentrations was spotted into a 384-well back plate (PerkinElmer, 6007279) using a Labcyte Echo, followed by addition of 10 μl of FAAH enzyme (Cayman 10010183) in assay buffer (50 mM Tris, pH 9.0, 1 mM EDTA, i.e. ethylenediaminetetraacetic acid). After a 30 minute incubation at room temperature, 10 μL of Arachidonyl-AMCA was added in assay buffer with 16% DMSO. […] The reaction was allowed to progress for 60 minutes, after which the plate was read on a Molecular Devices FlexStation reader at an Ex/Em of 355/460. Percent inhibitions were calculated based on controls wells containing either no compound (0% inhibition) or a control compound (e.g., an FAAH inhibitor whose activity is known or was previously reported in the literature, such as one with about 100% inhibition). IC50 values were generated based on a four parameter fit model using ABASE software from IDBS.

[6] abbreviates: 30 minute incubation before substrate, read-out: MAGL (T = 30 min) IC50.
Where [7] appears, read: substrate added immediately (T=0 min), read-out: MAGL (T = 0 min) IC50.

In the case of `O=C(OC(C(F)(F)F)C(F)(F)F)N1CCC2(CC1)C[C@@H](NS(=O)(=O)C1CC1)CO2` [Form A, 1,1,1,3,3,3-hexafluoropropan-2-yl(3R)-3-[(cyclopropylsulfonyl)amino]-1-oxa-8-azaspiro[4.5]decane-8-carboxylate], the DVS weight gain in series [1] (0-60% RH) was 0-60% RH, 25° C.: <0.1% weight gain; in series [1] (60% RH), 60% RH, 25° C.: <0.1% weight gain; in series [1] (75% RH), 75% RH, 25° C.: <0.1% weight gain; in series [1] (90% RH), 90% RH, 25° C.: <0.1% weight gain; in series [1] (at up to 90% RH), “less than 0.1%”.
For `O=C(OC(C(F)(F)F)C(F)(F)F)N1CCC2(CC1)C[C@@H](NS(=O)(=O)c1ccccc1)CO2` [Comparative-Compound 4, 1,1,1,3,3,3-hexafluoropropan-2-yl (3R)-3-[(phenylsulfonyl)amino]-1-oxa-8-azaspiro[4.5]decane-8-carboxylate], in series [2], the microsomal CLint at 1 μM turned out to be 30.4 µL/min/mg. For the same compound, the “HHEPs CLint, app” value in series [3] stood at 27.5 μL/min/million.
For `O=C(OC(C(F)(F)F)C(F)(F)F)N1CCC2(CCC(NS(=O)(=O)CC3CC3)CO2)CC1` (single isomer, unassigned; ent-2) [Example 5, 1,1,1,3,3,3-Hexafluoropropan-2-yl 3-{[(cyclopropylmethyl)sulfonyl]amino}-1-oxa-9-azaspiro[5.5]undecane-9-carboxylate, ENT-2], the “MAGL kinact/KI” value in series [4] is on record as 6930 1/s per M. Further, the results for the IC50 (in series [5] (setting [6]); in series [5] (setting [7]); at human recombinant FAAH) were 0.0101 µM, 0.103 µM and more than 30 µM, respectively.
Turning to `O=C(OC(C(F)(F)F)C(F)(F)F)N1CCC2(CCC(NS(=O)(=O)CC3CC3)CO2)CC1` (single isomer, unassigned; ent-1) [Example 4, 1,1,1,3,3,3-Hexafluoropropan-2-yl 3-{[(cyclopropylmethyl)sulfonyl]amino}-1-oxa-9-azaspiro[5.5]undecane-9-carboxylate, ENT-1], the “MAGL kinact/KI” value in series [4] is 3110 1/s per M. Also, the IC50 is 0.02 µM in series [5] (setting [6]), 0.162 µM in series [5] (setting [7]) and more than 30 µM on human recombinant FAAH.
With `O=C(OC(C(F)(F)F)C(F)(F)F)N1CCC2(CC1)C[C@@H](NS(=O)(=O)CC1CC1)CO2` [Form I, 1,1,1,3,3,3-Hexafluoropropan-2-yl (3R)-3-{[(cyclopropylmethyl)sulfonyl]amino}-1-oxa-8-azaspiro[4.5]decane-8-carboxylate], the DVS weight gain is given as 0-60% RH, 25° C.: <0.1% weight gain in series [1] (0-60% RH); 60% RH, 25° C.: <0.1% weight gain in series [1] (60% RH); 75% RH, 25° C.: <0.1% weight gain in series [1] (75% RH); 90% RH, 25° C.: <0.1% weight gain in series [1] (90% RH); “less than 0.1%” in series [1] (at up to 90% RH).
